According to PMC7160233, “Peptides With Triplet-Tryptophan-Pivot Promoted Pathogenic Bacteria Membrane Defects” (Frontiers in Microbiology, 2020):

Tests used:
[1] = test system: humans; settings: corresponding to the rat value, ref Richard et al., 2009, Fernstrom, 2012; cited from earlier work
From the text: (§1) Also, the indole ring of tryptophan prefers to interact with a […], and the indole NH being close to a lipid carbonyl ester leads W-containing peptides to be powerful and safe promising antibiotic candidates with different beneficial effects ([Dixon et al., 2003]; ...

[2] = test system: rats; settings: ref Richard et al., 2009, Fernstrom, 2012; cited from earlier work
From the text: as §1

[3] = test system: E. coli ATCC 25922; test: Drug resistance experiment (sequential passaging); type: cell-based, Escherichia coli; settings: E. coli 25922, passaged at sub-MIC for 30 days
Experimental: Resistance development of E. coli ATCC 25922 against antibiotics was investigated using a sequential passaging method. Briefly, in the first generation, the MIC value was determined as described previously. After a 24 h incubation, bacterial cells growing in a well with a half-MIC level were harvested and diluted to 0.05 at OD600, followed by a 1:10 dilution in fresh MHB. The inoculum was subjected to subsequent passage MIC testing, and the process was repeated for 30 days. The fold change in MIC was plotted against the number of passages.

[4] = test system: E. coli ATCC 25922; test: Mouse infection model, bacterial load; type: in vivo; settings: ICR mice, i.p. E. coli 1 × 10^8 CFU/ml, 5 mg/kg i.p. 1 h later, 6 h, P < 0.05
Experimental: Female Institute for Cancer Research (ICR) mice (SPF, 20–25 g) were purchased from WeiTonglihua, Co., Ltd. (Beijing, China). Mice were fed and acclimatized as described ([Chou et al., 2019]). E. coli ATCC 25922 was adopted as the pathogenic bacterium for the infection model in this study. In this mouse model, the antimicrobial activity of S7 was determined by colony counting of blood and various organs. Briefly, the mice were divided into four groups (six groups for anti-inflammatory assay) and received intraperitoneal injections of 100 μl E. coli (1 × 10^8 CFU/ml) cells in 0.9% NaCl or only 100 μl 0.9% NaCl as control. 1 h later, 100 μl S7 (5 mg/kg), 100 μl 0.9% NaCl, 100 μl gentamicin (5 mg/kg) or 100 μl 0.9% NaCl, was intraperitoneally injected to the treated or control groups, respectively. And the mice were sacrificed via excessive anesthesia after 6 h post-challenge. The anti-inflammatory effect of S7 was measured by testing the levels of TNF-α, IL-6, and IL-1β in serum using a TNF-α enzyme-linked immunosorbent assay (ELISA) kit, an IL-6 ELISA kit and an IL-1β ELISA kit according to the manufacturer’s instructions (Shanghai Jin Ma Laboratory Equipment, Co., Ltd.).

SMILES	median lethal dose (LD50), corresponding dose in humans [1] [mg/kg]	median lethal dose (LD50) [2] [mg/kg]	resistance development (change in MIC on serial passaging) [3]	number of colonies in blood, kidney and liver versus E. coli group [4]
N[C@@H](Cc1c[nH]c2ccccc12)C(=O)O [Tryptophan (W), Tryptophan]	~1400	1600		
CNC(C)C1CCC(N)C(OC2C(N)CC(N)C(OC3OCC(C)(O)C(NC)C3O)C2O)O1 (stereo not shown) [gentamicin]			induced rapid resistance acquisition	significantly decreased
